{
  "source": "patent US5629011A",
  "about": "“Composition for nasal administration” (priority 1992, dated 1997)",
  "key": {"[1]": {"conditions": "intracerebroventricular, mice; cited from earlier work"}, "[2]": {"conditions": "subcutaneous injection, rat; cited from earlier work"}, "[3]": {"conditions": "cited from earlier work; for unwanted side effects: metabolites compared with morphine, for morphine: therapeutic use"}, "in vivo": {"experiment": "in vivo", "conditions": "sheep", "experimental": "(§1) The chitosan concentration was 0.5%. The solution was administered into the sheep nostril using a simple spray pump device followed by serial blood sampling. […] Control experiments were conducted using i.v. dosage of the glucuronide.\n(§2) Blood samples (10 ml) were taken at the following times.\nPlasma was separated by centrifugation soon after sampling and the plasma samples (approximately 5 ml) were stored at -80° C. prior to analysis.\nBiomed. Appl. 230, 427. […] The limit of quantification of the method is 1 ng/ml for a 0.5 ml plasma sample and the assay is linear over the range of 1 to 1200 ng/ml drug concentration."}, "[4]": {"experiment": "Pharmacokinetic parameters after intravenous administration to sheep", "conditions": "for Vd: Apparent Volume of Distibution; for AUC at 5 h: Area Under Curve; for half-life: T1/2, i.v. 0.015 mg/kg", "experimental": "as §1, §2\n(§3) The area under the curve (AUC) was calculated over 0-300 minutes using the linear trapezoidal method. […] Clearance was calculated by dividing the dose by the AUC, and the volume of distribution was calculated by dividing the clearance by the elimination rate constant. The bioavailability was calculated by dividing the mean AUC for nasal administration by the normalised mean AUC after intravenous administration."}, "[5]": {"experiment": "Pharmacokinetic parameters after nasal administration to sheep", "conditions": "for Vd: Apparent Volume of Distribution; for AUC at 5 h: Area Under Curve; for half-life: T1/2, nasal 0.15 mg/kg with 0.5% chitosan", "experimental": "as §1, §2, §3"}, "[6]": {"conditions": "0.15 mg/kg, morphine-6-glucuronide concentration (plasma)"}, "[7]": {"conditions": "iv, 0.015 mg/kg, morphine-6-glucuronide concentration (plasma)"}, "[8]": {"conditions": "i.v. 0.015 mg/kg, individual sheep NF, OF, PF"}, "[9]": {"conditions": "nasal 0.15 mg/kg with 0.5% chitosan, individual sheep IF, JF, KF, 0.15 mg/kg"}},
  "note": "Several values for one entry are separate records, joined by “and”; a condition that tells them apart may be missing. Equal entries are not always repeated.",
  "data": [
    {"smiles": "CN1CC[C@]23c4c5ccc(O)c4O[C@H]2[C@@H](OS(=O)(=O)O)C=C[C@H]3[C@H]1C5", "note": "[morphine-6-sulphate]", "values": [
      {"measurement": "analgesic potency compared with morphine", "setting": "[1]", "result": "more potent analgesic than morphine"},
      {"measurement": "antinociceptive activity", "setting": "[2]", "result": "potent antinociceptive activity"},
      {"measurement": "unwanted side effects", "setting": "[3]", "result": "less likely to have the unwanted side effects"}
    ]},
    {"smiles": "CN1CC[C@]23c4c5ccc(O)c4O[C@H]2[C@@H](O[C@@H]2O[C@H](C(=O)O)[C@@H](O)[C@H](O)[C@H]2O)C=C[C@H]3[C@H]1C5", "note": "[morphine-6-glucuronide]", "values": [
      {"measurement": "concentration at 10 min", "setting": "in vivo; [6]", "result": 89.1, "unit": "ng/mL"},
      {"measurement": "concentration at 0.25 h", "setting": "in vivo; [6]", "result": 121, "unit": "ng/mL"},
      {"measurement": "concentration at 20 min", "setting": "in vivo; [6]", "result": 102, "unit": "ng/mL"},
      {"measurement": "concentration at 0.5 h", "setting": "in vivo; [6]", "result": 107, "unit": "ng/mL"},
      {"measurement": "concentration at 0.75 h", "setting": "in vivo; [6]", "result": 108, "unit": "ng/mL"},
      {"measurement": "concentration at 1 h", "setting": "in vivo; [6]", "result": 66.7, "unit": "ng/mL"},
      {"measurement": "concentration at 1.5 h", "setting": "in vivo; [6]", "result": 41.1, "unit": "ng/mL"},
      {"measurement": "concentration at 2 h", "setting": "in vivo; [6]", "result": 21.9, "unit": "ng/mL"},
      {"measurement": "concentration at 3 h", "setting": "in vivo; [6]", "result": 10.2, "unit": "ng/mL"},
      {"measurement": "concentration at 6 h", "setting": "in vivo; [6]", "result": "< 1", "unit": "ng/mL"},
      {"measurement": "morphine-6-glucuronide concentration (plasma)", "setting": "in vivo; iv, 0.015 mg/kg, 2.5 h", "result": 3.5, "unit": "ng/mL"},
      {"measurement": "concentration at 2 min", "setting": "in vivo; [7]", "result": 43.8, "unit": "ng/mL"},
      {"measurement": "concentration at 5 min", "setting": "in vivo; [7]", "result": 40.3, "unit": "ng/mL"},
      {"measurement": "concentration at 10 min", "setting": "in vivo; [7]", "result": 36.1, "unit": "ng/mL"},
      {"measurement": "concentration at 0.25 h", "setting": "in vivo; [7]", "result": 28.6, "unit": "ng/mL"},
      {"measurement": "concentration at 20 min", "setting": "in vivo; [7]", "result": 23.2, "unit": "ng/mL"},
      {"measurement": "concentration at 0.5 h", "setting": "in vivo; [7]", "result": 22.5, "unit": "ng/mL"},
      {"measurement": "concentration at 1.5 h", "setting": "in vivo; [7]", "result": 9.4, "unit": "ng/mL"},
      {"measurement": "concentration at 3 h", "setting": "in vivo; [7]", "result": 2, "unit": "ng/mL"},
      {"measurement": "concentration at 4 h", "setting": "in vivo; [7]", "result": "< 1", "unit": "ng/mL"},
      {"measurement": "concentration at 5 h", "setting": "in vivo; [7]", "result": "< 1", "unit": "ng/mL"},
      {"measurement": "concentration at 6 h", "setting": "in vivo; [7]", "result": "< 1", "unit": "ng/mL"},
      {"measurement": "Area Under Curve", "setting": "[4]; i.v. 0.015 mg/kg, 0-300 min, individual sheep NF, OF, PF, 300 min", "result": "3819 ng·min/mL and 2560 ng·min/mL"},
      {"measurement": "Apparent Volume of Distibution", "setting": "[4]; [8]", "result": "0.30 lkg^-1 and 0.35 lkg^-1"},
      {"measurement": "Cmax", "setting": "[4]; [8]", "result": "55 ng/mL and 50 ng/mL"},
      {"measurement": "T1/2", "setting": "[4]; [8]", "result": "53 min and 42 min"},
      {"measurement": "Tmax", "setting": "[4]; [8]", "result": "2 min and 5 min"},
      {"measurement": "clearance", "setting": "[4]; [8]", "result": "3.9 mL/min/kg and 5.9 mL/min/kg"},
      {"measurement": "Vd", "setting": "[4]; sheep, plasma, iv, 0.015 mg/kg, i.v. 0.015 mg/kg, individual sheep NF, OF, PF", "result": 0.58, "unit": "L/kg"},
      {"measurement": "Vd", "setting": "[4]; sheep, plasma, iv, 0.015 mg/kg, i.v. 0.015 mg/kg, mean of 3 sheep", "result": 0.41, "unit": "L/kg"},
      {"measurement": "AUC at 5 h", "setting": "[4]; sheep, plasma, iv, 0.015 mg/kg, i.v. 0.015 mg/kg, 0-300 min, individual sheep NF, OF, PF", "result": 36.1, "unit": "ng·h/mL"},
      {"measurement": "AUC at 5 h", "setting": "[4]; sheep, plasma, iv, 0.015 mg/kg, i.v. 0.015 mg/kg, 0-300 min, mean of 3 sheep", "result": 47.5, "unit": "ng·h/mL"},
      {"measurement": "clearance", "setting": "[4]; sheep, plasma, iv, 0.015 mg/kg, Clearance, i.v. 0.015 mg/kg, individual sheep NF, OF, PF", "result": 6.9, "unit": "mL/min/kg"},
      {"measurement": "clearance", "setting": "[4]; sheep, plasma, iv, 0.015 mg/kg, Clearance, i.v. 0.015 mg/kg, mean of 3 sheep", "result": 5.6, "unit": "mL/min/kg"},
      {"measurement": "Cmax", "setting": "[4]; sheep, plasma, iv, 0.015 mg/kg, Cmax, i.v. 0.015 mg/kg, individual sheep NF, OF, PF", "result": 44, "unit": "ng/mL"},
      {"measurement": "Cmax", "setting": "[4]; sheep, plasma, iv, 0.015 mg/kg, Cmax, i.v. 0.015 mg/kg, mean of 3 sheep", "result": 50, "unit": "ng/mL"},
      {"measurement": "half-life", "setting": "[4]; sheep, plasma, iv, 0.015 mg/kg, individual sheep NF, OF, PF", "result": 58, "unit": "min"},
      {"measurement": "half-life", "setting": "[4]; sheep, plasma, iv, 0.015 mg/kg, mean of 3 sheep", "result": 51, "unit": "min"},
      {"measurement": "Tmax", "setting": "[4]; sheep, plasma, iv, 0.015 mg/kg, Tmax, i.v. 0.015 mg/kg, mean of 3 sheep", "result": 3, "unit": "min"},
      {"measurement": "bioavailability", "setting": "[5]; nasal 0.15 mg/kg with 0.5% chitosan, vs normalised mean i.v. AUC, individual sheep IF, JF, KF, 0.15 mg/kg", "result": "37.3% and 26.6%"},
      {"measurement": "Area Under Curve", "setting": "[5]; nasal 0.15 mg/kg with 0.5% chitosan, 0-300 min, individual sheep IF, JF, KF, 0.15 mg/kg, 300 min", "result": "10631 ng·min/mL and 7581 ng·min/mL"},
      {"measurement": "Apparent Volume of Distribution", "setting": "[5]; nasal 0.15 mg/kg with 0.5% chitosan, corrected for bioavailable dose, individual sheep IF, JF, KF, 0.15 mg/kg", "result": 0.31, "unit": "lkg^-1"},
      {"measurement": "clearance", "setting": "[5]; nasal 0.15 mg/kg with 0.5% chitosan, corrected for bioavailable dose, mean of 3 sheep", "result": 5.3, "unit": "mL/min/kg"},
      {"measurement": "Cmax", "setting": "[5]; [9]", "result": "165 ng/mL and 110 ng/mL"},
      {"measurement": "T1/2", "setting": "[5]; [9]", "result": "41 min and 42 min"},
      {"measurement": "Tmax", "setting": "[5]; [9]", "result": 10, "unit": "min"},
      {"measurement": "clearance", "setting": "[5]; sheep, plasma, 0.15 mg/kg", "result": 5.3, "unit": "mL/min/kg"},
      {"measurement": "Vd", "setting": "[5]; sheep, plasma, 0.15 mg/kg, nasal 0.15 mg/kg with 0.5% chitosan, corrected for bioavailable dose, individual sheep IF, JF, KF", "result": 0.37, "unit": "L/kg"},
      {"measurement": "Vd", "setting": "[5]; sheep, plasma, 0.15 mg/kg, nasal 0.15 mg/kg with 0.5% chitosan, corrected for bioavailable dose, mean of 3 sheep", "result": 0.33, "unit": "L/kg"},
      {"measurement": "AUC at 5 h", "setting": "[5]; sheep, plasma, 0.15 mg/kg, nasal 0.15 mg/kg with 0.5% chitosan, 0-300 min, individual sheep IF, JF, KF", "result": 156, "unit": "ng·h/mL"},
      {"measurement": "AUC at 5 h", "setting": "[5]; sheep, plasma, 0.15 mg/kg, nasal 0.15 mg/kg with 0.5% chitosan, 0-300 min, mean of 3 sheep", "result": 153, "unit": "ng·h/mL"},
      {"measurement": "bioavailability", "setting": "[5]; sheep, plasma, 0.15 mg/kg, Bioavailability, nasal 0.15 mg/kg with 0.5% chitosan, vs normalised mean i.v. AUC, individual sheep IF, JF, KF", "result": 32.9, "unit": "%"},
      {"measurement": "Cmax", "setting": "[5]; sheep, plasma, 0.15 mg/kg, Cmax, nasal 0.15 mg/kg with 0.5% chitosan, individual sheep IF, JF, KF", "result": 121, "unit": "ng/mL"},
      {"measurement": "Cmax", "setting": "[5]; sheep, plasma, 0.15 mg/kg, Cmax, nasal 0.15 mg/kg with 0.5% chitosan, mean of 3 sheep", "result": 132, "unit": "ng/mL"},
      {"measurement": "half-life", "setting": "[5]; sheep, plasma, 0.15 mg/kg, individual sheep IF, JF, KF", "result": 51, "unit": "min"},
      {"measurement": "half-life", "setting": "[5]; sheep, plasma, 0.15 mg/kg, mean of 3 sheep", "result": 45, "unit": "min"},
      {"measurement": "Tmax", "setting": "[5]; sheep, plasma, 0.15 mg/kg, Tmax, nasal 0.15 mg/kg with 0.5% chitosan, individual sheep IF, JF, KF", "result": 15, "unit": "min"},
      {"measurement": "Tmax", "setting": "[5]; sheep, plasma, 0.15 mg/kg, Tmax, nasal 0.15 mg/kg with 0.5% chitosan, mean of 3 sheep", "result": 13, "unit": "min"},
      {"measurement": "bioavailability", "setting": "[5]; sheep, plasma, 0.15 mg/kg, mean nasal bioavailability, nasal 0.15 mg/kg with 0.5% chitosan, vs i.v. AUC normalised to 0.15 mg/kg, mean, n=3", "result": 32.3, "unit": "%"},
      {"measurement": "biological half-life compared with morphine", "setting": "[3]", "result": "may also have a longer biological half-life"},
      {"measurement": "unwanted side effects", "setting": "[3]", "result": "less likely to have the unwanted side effects"}
    ]}
  ]
}
